Read-outs that look alike come from different tables or passages of the source.
Tests used:
MET kinase = molecular target: T1, MET kinase (Homo sapiens, UniProt P08581); assay: MET kinase assay (AlphaScreen, counter screen); type: biochemical; settings: read-out: Ranking of IC50 values, MET
T1 construct: purchased SignalChem
Description: Because MET kinase belonged to Class VIII RTK family have one transmembrane a chain linked with one extracellular β chain which is different form Class III RTK family with 5 Immunoglobin-like extracellular domains. Standard assay conditions were 1 ng of recombinant MET kinase (SignalChem) with 3 ng Biotin-conjugated Poly-(Glu 4: Tyr 1) (Cisbio) in the assay buffer ([…], 10 mM MOPs, pH 7.0, 0.21 mM EDTA, 0.5% glycerol, 1 mg/mL BSA, 0.01% 2-mercaptoethanol, 0.001% Brij35, 10 mM MgCl2) in a final volume of 25 μL. Reactions were incubated at 30° C. for 45 min and stopped by adding 5 μL of 50 mM EDTA. Analysis of resulting product using an AlphaScreen kit and counted with Enspire Alpha (PerkinElmer). […] The IC50 values of inhibitors were determined after carrying out assays with each compound at serially diluted concentrations in duplication. The results were analyzed using linear regression software (GraphPad Prism 5; GraphPad Software Inc.)

[1] = test system: Molm-14 human acute myeloid leukemia cell with FLT3-ITD mutation; assay: Molm-14 cell proliferation assay (CellTiter 96); type: cell-based; settings: Molm-14 cells, 72 hours treatment, CellTiter96, read-out: anti-proliferation activity Molm-14 (FLT3-ITD), IC50 ranking
Description: Inhibitions of cell growths by compounds were measured using CellTiter™-96 assay. The cytotoxicities of compounds of the invention were evaluated in cell line panels with different signaling pathway dependencies, including MV4-11 human acute myeloid leukemia cell with FLT3-ITD mutation, Molm-14 human acute myeloid leukemia cell with FLT3-ITD mutation, THP-1 human acute monocytic leukemia cell with NRAS G12D mutation, A375 melanoma cell with BRAF V600E mutation, and HCC827 NSCLC cell with EGFR exon 19 deletion mutation.
The compounds disclosed herein were tested in Molm-14 cell proliferation assay to determine their cellular potencies against FLT3 signal pathway dependent cell growths. Molm-14 cells are human acute myeloid leukemia (AML) cells harboring ligand-independent FLT3-ITD activating mutation, which renders the abnormal proliferation of the AML cells FLT3 signaling pathway dependent. Inhibition of FLT3 kinase activity will result in reduced growths and/or cell deaths. […] Briefly, cells were grown in RPMI 1640 medium supplemented with 10% heat inactivated fetal bovine serum and incubated at 37° C. in 5% CO2 atmosphere. Cells were allowed to expand until reaching saturation, at which point they were sub-cultured or harvested for assay use.
MV4-11, Molm-14, THP-1, A375, and HCC827 cells were seeded into 96-well plates at 6500, 25000, 5000, 2000 and 8000 cells/well, respectively, and incubated at 37° C., 5% CO2 overnight. Then, these seeded cells were treated with increasing concentrations of the test compounds and incubated for another 72 hours. At the end of the incubation, CellTiter96® AQueous One Solution Reagent (Promega, […]) was added and incubated for the additional 2˜4 hours. Cell viability was determined by measuring absorbance at 490 nm using EMax® microplate reader (Molecular Devices, San Jose, CA, USA).

FLT3-D835Y mutant kinase = molecular target: T2, FLT3-D835Y mutant kinase (Homo sapiens, UniProt P36888, D835Y); assay: FLT3-D835Y mutant kinase assay (AlphaScreen); type: biochemical; settings: read-out: Ranking of IC50 values, FLT3-D835Y
T2 construct: purchased SignalChem
T2 sequence (P36888 27-993 D835Y): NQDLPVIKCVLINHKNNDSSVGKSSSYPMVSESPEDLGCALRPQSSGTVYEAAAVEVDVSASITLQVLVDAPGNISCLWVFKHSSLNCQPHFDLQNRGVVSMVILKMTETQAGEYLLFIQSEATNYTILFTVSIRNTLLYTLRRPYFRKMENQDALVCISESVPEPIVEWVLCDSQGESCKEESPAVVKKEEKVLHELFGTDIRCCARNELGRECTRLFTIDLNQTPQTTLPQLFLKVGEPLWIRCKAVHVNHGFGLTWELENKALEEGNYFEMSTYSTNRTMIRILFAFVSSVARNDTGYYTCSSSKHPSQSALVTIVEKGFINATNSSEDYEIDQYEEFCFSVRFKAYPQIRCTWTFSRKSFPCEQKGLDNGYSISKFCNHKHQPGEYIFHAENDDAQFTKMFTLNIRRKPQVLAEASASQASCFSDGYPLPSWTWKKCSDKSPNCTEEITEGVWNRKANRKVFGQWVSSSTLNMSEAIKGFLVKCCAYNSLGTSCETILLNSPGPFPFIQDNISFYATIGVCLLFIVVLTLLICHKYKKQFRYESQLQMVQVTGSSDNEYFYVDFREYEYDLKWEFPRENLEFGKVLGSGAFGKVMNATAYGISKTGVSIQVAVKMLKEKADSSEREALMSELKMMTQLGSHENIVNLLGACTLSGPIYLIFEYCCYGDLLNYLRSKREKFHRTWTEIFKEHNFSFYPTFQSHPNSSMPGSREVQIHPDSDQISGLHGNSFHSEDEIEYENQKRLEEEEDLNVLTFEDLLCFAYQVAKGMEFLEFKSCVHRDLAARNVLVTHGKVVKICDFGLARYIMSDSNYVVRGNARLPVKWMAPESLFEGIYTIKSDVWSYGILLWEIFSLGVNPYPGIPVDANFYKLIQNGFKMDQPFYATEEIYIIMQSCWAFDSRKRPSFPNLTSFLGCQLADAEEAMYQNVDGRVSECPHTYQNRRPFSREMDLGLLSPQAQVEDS
In short: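 Recombinant FLT3-D835Y (1 ng) phosphorylated biotin-poly(Glu4:Tyr1) at 10 μM ATP, pH 7.0 MOPS buffer with 10 mM MgCl2, for 30 min at 30 °C, stopped with EDTA. Product was read by AlphaScreen. IC50 came from serial dilutions run in duplicate.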

T1 sequence (P08581 25-1390): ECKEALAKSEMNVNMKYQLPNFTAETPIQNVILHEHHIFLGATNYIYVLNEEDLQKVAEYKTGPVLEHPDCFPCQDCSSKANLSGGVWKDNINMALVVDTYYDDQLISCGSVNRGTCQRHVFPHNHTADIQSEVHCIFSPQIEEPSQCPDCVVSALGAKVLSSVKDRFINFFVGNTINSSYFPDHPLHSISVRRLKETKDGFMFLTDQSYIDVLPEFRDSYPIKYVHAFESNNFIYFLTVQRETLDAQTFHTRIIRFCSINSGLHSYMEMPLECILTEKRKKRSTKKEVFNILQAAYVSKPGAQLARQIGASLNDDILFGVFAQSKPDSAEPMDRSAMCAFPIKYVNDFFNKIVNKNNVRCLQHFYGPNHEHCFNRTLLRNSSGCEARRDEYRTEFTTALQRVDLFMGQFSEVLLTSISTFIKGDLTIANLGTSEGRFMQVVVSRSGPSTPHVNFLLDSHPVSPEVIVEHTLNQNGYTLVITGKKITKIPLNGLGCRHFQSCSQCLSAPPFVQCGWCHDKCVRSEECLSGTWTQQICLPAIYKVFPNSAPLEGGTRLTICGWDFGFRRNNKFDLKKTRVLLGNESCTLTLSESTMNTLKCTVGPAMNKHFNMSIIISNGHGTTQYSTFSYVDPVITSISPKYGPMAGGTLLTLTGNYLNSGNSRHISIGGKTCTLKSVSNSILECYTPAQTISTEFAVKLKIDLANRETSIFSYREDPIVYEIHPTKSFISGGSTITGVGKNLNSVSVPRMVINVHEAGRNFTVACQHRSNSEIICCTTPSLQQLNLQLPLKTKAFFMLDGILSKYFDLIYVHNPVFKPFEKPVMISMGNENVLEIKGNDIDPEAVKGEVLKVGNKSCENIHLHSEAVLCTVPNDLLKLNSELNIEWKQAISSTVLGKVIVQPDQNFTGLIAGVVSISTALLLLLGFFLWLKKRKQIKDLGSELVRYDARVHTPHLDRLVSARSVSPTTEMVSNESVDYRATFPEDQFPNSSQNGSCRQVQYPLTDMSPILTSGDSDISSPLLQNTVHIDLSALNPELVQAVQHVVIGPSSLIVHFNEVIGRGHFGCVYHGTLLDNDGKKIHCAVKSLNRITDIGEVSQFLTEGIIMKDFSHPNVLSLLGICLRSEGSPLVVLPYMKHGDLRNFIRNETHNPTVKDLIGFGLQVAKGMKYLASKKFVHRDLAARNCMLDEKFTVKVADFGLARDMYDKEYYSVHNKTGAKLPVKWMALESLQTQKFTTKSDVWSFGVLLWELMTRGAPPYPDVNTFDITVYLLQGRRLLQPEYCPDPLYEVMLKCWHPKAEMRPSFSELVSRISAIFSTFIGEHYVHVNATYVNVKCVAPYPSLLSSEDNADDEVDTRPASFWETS

SMILES | IC50 (MET kinase) [µM] | IC50 ([1]; Homo sapiens) [µM] | IC50 (FLT3-D835Y mutant kinase) [µM] | IC50 [1] [µM]
C[C@@H]1CN(C(=O)c2ccc(-c3cc4c(s3)Cc3c(-c5ccc6cnn(C)c6c5)n[nH]c3-4)cc2)C[C@H](C)O1 [Compound 19, ((2S,6R)-2,6-dimethyl-morpholino)(4-(3-(1-methyl-1H-indazol-6-yl)-1,4-dihydrothieno[2′,3′:4,5]cyclopenta[1,2-c]pyrazol-6-yl)phenyl)methanone] | > 1 | < 0.03 | 0.001 to 0.01 | –
CC(c1ccc(-c2cc3c(s2)Cc2c(-c4ccc5cnn(C)c5c4)n[nH]c2-3)cc1)N1CCOCC1 (stereo not drawn) [Compound 20, 4-(1-(4-(3-(1-methyl-1H-indazol-6-yl)-1,4-dihydro-thieno[2′,3′:4,5]cyclopenta [1,2-c]pyrazol-6-yl)phenyl)ethyl)morpholine] | > 1 | 0.03 to 0.1 | 0.001 to 0.01 | –
Cn1ncc2ccc(-c3n[nH]c4c3Cc3sc(-c5ccc(C(=O)N6CCOCC6)cc5)cc3-4)cc21 [Compound 21, (4-(3-(1-methyl-1H-indazol-6-yl)-1,4-dihydro-thieno[2′,3′:4,5]cyclopenta [1,2-c]pyrazol-6-yl)phenyl) (morpholino)methanone] | > 1 | < 0.03 | < 0.001 | –
Cn1ncc2ccc(-c3n[nH]c4c3Cc3sc(-c5ccc(CCN6CCOCC6)cc5)cc3-4)cc21 [Compound 22, 4-(4-(3-(1-methyl-1H-indazol-6-yl)-1,4-dihydro-thieno[2′,3′:4,5]cyclopenta [1,2-c]pyrazol-6-yl)phenethyl)morpholine] | > 1 | 0.03 to 0.1 | 0.001 to 0.01 | –
Cn1ncc2ccc(-c3n[nH]c4c3Cc3sc(-c5ccc(C(=O)N6CCOCC6)nc5)cc3-4)cc21 [Compound 23, (5-(3-(1-methyl-1H-indazol-6-yl)-1,4-dihydro-thieno[2′,3′:4,5]cyclopenta [1,2-c]pyrazol-6-yl)pyridin-2-yl)(morpholino) methanone] | > 1 | 0.03 to 0.1 | < 0.001 | –
COc1cc(-c2cc3c(s2)Cc2c(-c4ccc5cnn(C)c5c4)n[nH]c2-3)ccc1CN1CCOCC1 [Compound 24, 4-(2-methoxy-4-(3-(1-methyl-1H-indazol-6-yl)-1,4-dihydrothieno[2′,3′:4,5]cyclopenta[1,2-c]pyrazol-6-yl)benzyl)morpholine] | > 1 | 0.03 to 0.1 | < 0.001 | –
Cn1ncc2ccc(-c3n[nH]c4c3Cc3sc(-c5ccc(CN6CCOCC6)c(F)c5)cc3-4)cc21 [Compound 25, 4-(2-fluoro-4-(3-(1-methyl-1H-indazol-6-yl)-1,4-dihydrothieno[2′,3′:4,5]cyclopenta[1,2-c]pyrazol-6-yl)benzyl)morpholine] | > 1 | 0.03 to 0.1 | 0.001 to 0.01 | –
Cc1cc(-c2cc3c(s2)Cc2c(-c4ccc5cnn(C)c5c4)n[nH]c2-3)ccc1CN1CCOCC1 [Compound 26, 4-(2-methyl-4-(3-(1-methyl-1H-indazol-6-yl)-1,4-dihydrothieno[2′,3′:4,5]cyclopenta[1,2-c]pyrazol-6-yl)benzyl)morpholine] | > 1 | 0.1 to 0.3 | 0.001 to 0.01 | –
Cn1ncc2ccc(-c3n[nH]c4c3Cc3sc(-c5ccc(CN6CCOCC6)c(C(F)(F)F)c5)cc3-4)cc21 [Compound 27, 4-(4-(3-(1-methyl-1H-indazol-6-yl)-1,4-dihydrothieno[2′,3′:4,5]cyclopenta[1,2-c]pyrazol-6-yl)-2-(trifluoromethyl)benzyl)morpholine] | > 1 | 1 to 10 | 0.001 to 0.01 | –
CCC(c1ccc(-c2cc3c(s2)Cc2c(-c4ccc5cnn(C)c5c4)n[nH]c2-3)cc1)N1CCOCC1 (stereo not drawn) [Compound 28, 4-(1-(4-(3-(1-methyl-1H-indazol-6-yl)-1,4-dihydro-thieno[2′,3′:4,5]cyclopenta [1,2-c]pyrazol-6-yl)phenyl)propyl)morpholine] | > 1 | 0.03 to 0.1 | 0.001 to 0.01 | –

Continued, values first:

IC50 (MET kinase) [µM] | IC50 ([1]; Homo sapiens) [µM] | IC50 (FLT3-D835Y mutant kinase) [µM] | IC50 [1] [µM] | SMILES
> 1 | 0.03 to 0.1 | < 0.001 | – | COc1cc(CN2CCOCC2)ccc1-c1cc2c(s1)Cc1c(-c3ccc4cnn(C)c4c3)n[nH]c1-2 [Compound 29, 4-(3-methoxy-4-(3-(1-methyl-1H-indazol-6-yl)-1,4-dihydrothieno [2′,3′:4,5]cyclopenta[1,2-c]pyrazol-6-yl)benzyl) morpholine]
> 1 | < 0.03 | < 0.001 | – | Cn1ncc2ccc(-c3n[nH]c4c3Cc3sc(-c5cncc(C(=O)N6CCOCC6)c5)cc3-4)cc21 [Compound 31, (5-(3-(1-methyl-1H-indazol-6-yl)-1,4-dihydrothieno[2′,3′:4,5]cyclopenta[1,2-c]pyrazol-6-yl)pyridin-3-yl) (morpholino)methanone]
> 1 | 0.1 to 0.3 | < 0.001 | – | Cn1ncc2ccc(-c3n[nH]c4c3Cc3sc(-c5ccc(CN6CCOCC6)cc5F)cc3-4)cc21 [Compound 32, 4-(3-fluoro-4-(3-(1-methyl-1H-indazol-6-yl)-1,4-dihydrothieno [2′,3′:4,5]cyclopenta [1,2-c]pyrazol-6-yl)benzyl)morpholine]
> 1 | – | < 0.001 | 0.03 to 0.1 | Cc1ccc(-c2cc3c(s2)Cc2c(-c4ccc5cnn(C)c5c4)n[nH]c2-3)cn1 [Compound 33, 3-(1-methyl-1H-indazol-6-yl)-6-(6-methylpyridin-3-yl)-1,4-dihydrothieno [2′,3′:4,5]cyclopenta [1,2-c]pyrazole]
> 1 | 0.03 to 0.1 | 0.001 to 0.01 | – | Cn1ncc2ccc(-c3n[nH]c4c3Cc3sc(-c5ccc(C(=O)N6CCCCC6)cc5)cc3-4)cc21 [Compound 34, (4-(3-(1-methyl-1H-indazol-6-yl)-1,4-dihydro-thieno[2′,3′:4,5]cyclopenta [1,2-c]pyrazol-6-yl)phenyl)(piperidin-1-yl) methanone]
> 1 | 0.1 to 0.3 | 0.001 to 0.01 | – | CC(C)Cn1ncc2ccc(-c3n[nH]c4c3Cc3sc(-c5ccc(CN6CCOCC6)cc5)cc3-4)cc21 [Compound 35, 4-(4-(3-(1-isobutyl-1H-indazol-6-yl)-1,4-dihydro-thieno[2′,3′:4,5]cyclopenta [1,2-c]pyrazol-6-yl)benzyl)morpholine]
